What was measured:
[1] = tested on: writhing in mice intraperitoneally administered with p-phenylquinone; assay: "writhing test" (p-phenylquinone) for analgesia; type: in vivo
Description: (§1) Hendershot and J. Forsaith, in J. Pharm. Exp. Therap. […] Int. Pharmacodyn. […] In the former the disappearance or the reduction of writhing in mice, intraperitoneally administered, with p-phenylquinone--a substance known to produce pain especially in the place of injection--is evaluated; the latter test is used to evaluate the ratio of relief from the pain due to compression of oedema paws in rats orally administered with the test compound.

[2] = tested on: pain due to compression of oedema paws in rats; assay: "pain relief test" (compression of oedema paws) for analgesia; type: in vivo
Description: as §1

[3] = tested on: secondary conditioned response (CR2), primary conditioned response (CR) and unconditioned response (UR) of rats; assay: "pole climbing avoidance test" (anti-anxiety activity); type: in vivo; conditions: i.p., about 3 to about 60 mg/kg, groups of ten rats
From the text: The anti-anxiety activity of the compounds of the invention was investigated by means of the "pole climbing avoidance test", performed essentially as described by G. Maffii, in Journ. Pharm. Pharmacol., 11 129, (1959). A conditioned animal, generally rat, is deconditioned, i.e. is brought to its normal pyschic behaviour, by administration of a suitable amount of the compound to be tested. According to the authors, an inhibition of the secondary conditioned response (CR2) without a contemporary or coupled with a not significant inhibition of the primary conditioned response (CR) and the unconditioned response (UR) is a clear indication of an anti-anxiety effect since these last two parameters are connected with sedative and hypnotic properties.

[4] = tested on: writhing in mice; pain due to compression of oedema paws in rats; assay: analgesic activity in both tests (writhing test in mice and pain relief test in rats); type: in vivo
From the text: The analgesic activity of the compounds of the present invention was ascertained by means of two known tests for analgesia: the "writhing test" in mice, described by L.C. Hendershot and J. Forsaith, in J. Pharm. Exp. Therap. 125, 237, (1959), and the "pain relief test" in rats described by L. O. Randall and J. J. Selitto, in Arch. Int. Pharmacodyn. 111, 409, (1957). In the former the disappearance or the reduction of writhing in mice, intraperitoneally administered, with p-phenylquinone--a substance known to produce pain especially in the place of injection--is evaluated; the latter test is used to evaluate the ratio of relief from the pain due to compression of oedema paws in rats orally administered with the test compound.

[5] = acute toxicity (LD50) in mice; conditions: mouse, in vivo, po; orally administered mice
[6] = acute toxicity (LD50) in rats; conditions: rat, in vivo, po; orally administered rats

## CC(=O)Oc1ccccc1C(=O)O [ASA, acetylsalicylic acid, reference compound]
[1]; 20 mg/kg per os
  percent of inhibition of writhings: 10%
[1]; 50 mg/kg per os
  percent of inhibition of writhings: 57%
[1]; 100 mg/kg per os
  percent of inhibition of writhings: 86%
[2]; 50 mg/kg per os
  percent of increase of the pain threshold: 39%
[2]; 100 mg/kg per os
  percent of increase of the pain threshold: 84%
[2]; 300 mg/kg per os
  percent of increase of the pain threshold: 109%

## Cc1nn(C)c(N)c1C1=CCN(C)CC1 [Example 1, 4-(1,2,5,6-tetrahydro-1-methyl-4-pyridinyl)-1,3-dimethyl 5-(1H)-pyrazolamine]
[3]
  influence on the CR and the UR (in words): no practical influence

## CCC(=O)N1CC=C(c2c(C)nn(C)c2N)CC1 [Example 8]
[3]
  influence on the CR and the UR (in words): no practical influence

## Cc1nn(C)c2[nH]c(=O)c3c(c12)CCCC3 [Example 18, 6,7,8,9-Tetrahydro-1,3-dimethyl-3H-pyrazolo[3,4-c]isoquinoline-5(4H)-one]
[3]
  influence on the CR and the UR (in words): no practical influence

## CCCCOc1nc2c(c(C)nn2C)c2c1CCCC2 [Example 27]
[3]
  influence on the CR and the UR (in words): no practical influence

## Cc1nn(C)c2nc(OCCO)c3c(c12)CCCC3 [Example 28]
[3]
  influence on the CR and the UR (in words): no practical influence

## CCN(CC)CCn1c(=O)c2c(c3c(C)nn(C)c31)CCC2 [Example 39]
[4]
  analgesic activity in these tests (in words): good activity

## Cc1nn(C)c2c1c1c(c(=O)n2CCN2CCN(c3ccccc3)CC2)CCC1 [Example 40]
[3]
  influence on the CR and the UR (in words): no practical influence

## Cc1nn(C)c2c1c1c(c(=O)n2CCN2CCN(C)CC2)CCCC1 [Example 45]
[3]
  influence on the CR and the UR (in words): no practical influence

## Cc1nn(C)c2ncc3c(c12)CCC3 [Example 55]
[4]
  analgesic activity in these tests (in words): good activity

## Cc1nn(C)c2ncc3c(c12)CCCC3 [Example 57]
[5]
  LD50: > 1000 mg/kg
[1]; 10 mg/kg per os
  percent of inhibition of writhings: 25%
[1]; 20 mg/kg per os
  percent of inhibition of writhings: 51%
[1]; 50 mg/kg per os
  percent of inhibition of writhings: 89%
[1]; writhing test, per os
  potency ratio co. 57:ASA: 6.6
[6]
  LD50: 650 mg/kg
[2]; 20 mg/kg per os
  percent of increase of the pain threshold: 78%
[2]; 50 mg/kg per os
  percent of increase of the pain threshold: 115%
[2]; 100 mg/kg per os
  percent of increase of the pain threshold: 172%
[2]; pain relief test, per os
  potency ratio co. 57:ASA: 2.6
[4]
  analgesic activity in these tests (in words): highly effective

From patent publication US4612318A, “CNS-depressant and analgesic tricyclo-[pyrazolo-[3,4-6]-pyridine] derivatives and pharmaceutical compositions thereof” (Gruppo Lepetit S.p.A., priority 1982, dated 1986)
